From US9737535B2, “Methods for treating cancer using TOR kinase inhibitor combination therapy comprising administering substituted pyrazino[2,3-b]pyrazines” (Signal Pharmaceuticals, LLC, priority 2014, dated 2017)

The molecules below were run on BT-20 (assay: Anti-proliferation assay (ATPLite), Chalice synergy score). Details: Compound 1 in combination with the named second active agent, 72 h, mean of n = 3 experiments in triplicate.
Format: cell-based
Parameters: scale not given here
Text: (§1) Cells were thawed from a liquid nitrogen preserved state.
(§2) The calculation for synergy score is provided below.
(§3) If T≧V0:100*[1−(T−V0)/(V−V0)]
In the case of `O=C(NC[C@H](O)CO)c1ccncc1Nc1ccc(I)cc1F` [AS703026], the Synergy score is reported as 6.08.
`C[C@]12CC[C@@H]3c4ccc(O)cc4C[C@@H](CCCCCCCCC[S+]([O-])CCCC(F)(F)C(F)(F)F)[C@H]3[C@@H]1CC[C@@H]2O` (stereo partly drawn) [Fulvestrant] was tested, and the Synergy score was 1.39.
`CS(=O)(=O)N1CCN(Cc2cc3nc(-c4cccc5[nH]ncc45)nc(N4CCOCC4)c3s2)CC1` [GDC-0941] was tested, and the Synergy score was 6.56.

Each molecule was assayed on HCC-1187 in the same assay as above. Details: Compound 1 in combination with the named second active agent, 72 h, mean of n = 3 experiments in triplicate.
Format: cell-based
Parameters: scale not given here
Text: as §1, §2, §3
`O=C(NC[C@H](O)CO)c1ccncc1Nc1ccc(I)cc1F` [AS703026] was tested, and the Synergy score was 8.22.
In the case of `C[C@]12CC[C@@H]3c4ccc(O)cc4C[C@@H](CCCCCCCCC[S+]([O-])CCCC(F)(F)C(F)(F)F)[C@H]3[C@@H]1CC[C@@H]2O` (stereo partly drawn) [Fulvestrant], the Synergy score is reported as 2.16.
`CS(=O)(=O)N1CCN(Cc2cc3nc(-c4cccc5[nH]ncc45)nc(N4CCOCC4)c3s2)CC1` [GDC-0941] was tested, and the Synergy score was 5.18.

Each molecule was assayed on HCC-1500 in the same assay as above. Details: Compound 1 in combination with the named second active agent, 72 h, mean of n = 3 experiments in triplicate.
Format: cell-based
Parameters: scale not given here
Text: as §1, §2, §3
`O=C(NC[C@H](O)CO)c1ccncc1Nc1ccc(I)cc1F` [AS703026] showed a Synergy score of 4.24.
For `C[C@]12CC[C@@H]3c4ccc(O)cc4C[C@@H](CCCCCCCCC[S+]([O-])CCCC(F)(F)C(F)(F)F)[C@H]3[C@@H]1CC[C@@H]2O` (stereo partly drawn) [Fulvestrant], the Synergy score was 5.15.
For `CS(=O)(=O)N1CCN(Cc2cc3nc(-c4cccc5[nH]ncc45)nc(N4CCOCC4)c3s2)CC1` [GDC-0941], the Synergy score was 1.45.

These molecules were tested on MDA-MB-231 in the same assay as above. Details: Compound 1 in combination with second active agent, mean self-cross + 2σ threshold 2.61.
Format: cell-based
Text: as §1, §2, §3
In the case of `O=C(NC[C@H](O)CO)c1ccncc1Nc1ccc(I)cc1F` [AS703026], the Synergy score is reported as 10.90.
`C[C@]12CC[C@@H]3c4ccc(O)cc4C[C@@H](CCCCCCCCC[S+]([O-])CCCC(F)(F)C(F)(F)F)[C@H]3[C@@H]1CC[C@@H]2O` (stereo partly drawn) [Fulvestrant] was tested, and the Synergy score was 0.77.
With `CS(=O)(=O)N1CCN(Cc2cc3nc(-c4cccc5[nH]ncc45)nc(N4CCOCC4)c3s2)CC1` [GDC-0941] the Synergy score was 1.76.

The molecules below were run on BT-549 in the same assay as above. Details: Compound 1 in combination with the named second active agent, 72 h, mean of n = 3 experiments in triplicate.
Format: cell-based
Text: as §1, §2, §3
`O=C(NC[C@H](O)CO)c1ccncc1Nc1ccc(I)cc1F` [AS703026] showed a Synergy score of 1.73.
With `C[C@]12CC[C@@H]3c4ccc(O)cc4C[C@@H](CCCCCCCCC[S+]([O-])CCCC(F)(F)C(F)(F)F)[C@H]3[C@@H]1CC[C@@H]2O` (stereo partly drawn) [Fulvestrant] the Synergy score was 1.25.
Work on `CS(=O)(=O)N1CCN(Cc2cc3nc(-c4cccc5[nH]ncc45)nc(N4CCOCC4)c3s2)CC1` [GDC-0941] yielded a Synergy score of 4.39.

What follows are molecules tested on MCF7 in the same assay as above. Details: Compound 1 in combination with second active agent, mean self-cross + 2σ threshold 3.07.
Format: cell-based
Text: as §1, §2, §3
Work on `O=C(NC[C@H](O)CO)c1ccncc1Nc1ccc(I)cc1F` [AS703026] yielded a Synergy score of 2.90.
`C[C@]12CC[C@@H]3c4ccc(O)cc4C[C@@H](CCCCCCCCC[S+]([O-])CCCC(F)(F)C(F)(F)F)[C@H]3[C@@H]1CC[C@@H]2O` (stereo partly drawn) [Fulvestrant] showed a Synergy score of 2.45.
For `CS(=O)(=O)N1CCN(Cc2cc3nc(-c4cccc5[nH]ncc45)nc(N4CCOCC4)c3s2)CC1` [GDC-0941], the Synergy score was 5.22.

These molecules were tested on MDA-MB-157 in the same assay as above. Details: Compound 1 in combination with second active agent, mean self-cross + 2σ threshold 4.68.
Format: cell-based
Text: as §1, §2, §3
In the case of `O=C(NC[C@H](O)CO)c1ccncc1Nc1ccc(I)cc1F` [AS703026], the Synergy score is reported as 6.66.
In the case of `C[C@]12CC[C@@H]3c4ccc(O)cc4C[C@@H](CCCCCCCCC[S+]([O-])CCCC(F)(F)C(F)(F)F)[C@H]3[C@@H]1CC[C@@H]2O` (stereo partly drawn) [Fulvestrant], the Synergy score is reported as 0.42.
Work on `CS(=O)(=O)N1CCN(Cc2cc3nc(-c4cccc5[nH]ncc45)nc(N4CCOCC4)c3s2)CC1` [GDC-0941] yielded a Synergy score of 5.60.

The molecules below were run on BT-474 in the same assay as above. Details: Compound 1 in combination with the named second active agent, 72 h, mean of n = 3 experiments in triplicate.
Format: cell-based
Text: as §1, §2, §3
In the case of `O=C(NC[C@H](O)CO)c1ccncc1Nc1ccc(I)cc1F` [AS703026], the Synergy score is reported as 2.61.
With `C[C@]12CC[C@@H]3c4ccc(O)cc4C[C@@H](CCCCCCCCC[S+]([O-])CCCC(F)(F)C(F)(F)F)[C@H]3[C@@H]1CC[C@@H]2O` (stereo partly drawn) [Fulvestrant] the Synergy score was 1.37.
`CS(=O)(=O)N1CCN(Cc2cc3nc(-c4cccc5[nH]ncc45)nc(N4CCOCC4)c3s2)CC1` [GDC-0941] showed a Synergy score of 5.04.

Each molecule was assayed on Hs-578-T in the same assay as above. Details: Compound 1 in combination with second active agent, mean self-cross + 2σ threshold 4.09.
Format: cell-based
Text: as §1, §2, §3
Work on `O=C(NC[C@H](O)CO)c1ccncc1Nc1ccc(I)cc1F` [AS703026] yielded a Synergy score of 6.43.
`C[C@]12CC[C@@H]3c4ccc(O)cc4C[C@@H](CCCCCCCCC[S+]([O-])CCCC(F)(F)C(F)(F)F)[C@H]3[C@@H]1CC[C@@H]2O` (stereo partly drawn) [Fulvestrant] was tested, and the Synergy score was 2.10.
Molecule `CS(=O)(=O)N1CCN(Cc2cc3nc(-c4cccc5[nH]ncc45)nc(N4CCOCC4)c3s2)CC1` [GDC-0941] has a Synergy score of 7.23.

Each molecule was assayed on HCC-1937 in the same assay as above. Details: Compound 1 in combination with the named second active agent, 72 h, mean of n = 3 experiments in triplicate.
Format: cell-based
Text: as §1, §2, §3
Work on `O=C(NC[C@H](O)CO)c1ccncc1Nc1ccc(I)cc1F` [AS703026] yielded a Synergy score of 2.41.
In the case of `C[C@]12CC[C@@H]3c4ccc(O)cc4C[C@@H](CCCCCCCCC[S+]([O-])CCCC(F)(F)C(F)(F)F)[C@H]3[C@@H]1CC[C@@H]2O` (stereo partly drawn) [Fulvestrant], the Synergy score is reported as 1.98.
For `CS(=O)(=O)N1CCN(Cc2cc3nc(-c4cccc5[nH]ncc45)nc(N4CCOCC4)c3s2)CC1` [GDC-0941], the Synergy score was 4.39.

These molecules were tested on HCC-1806 in the same assay as above. Details: Compound 1 in combination with the named second active agent, 72 h, mean of n = 3 experiments in triplicate.
Format: cell-based
Text: as §1, §2, §3
Molecule `O=C(NC[C@H](O)CO)c1ccncc1Nc1ccc(I)cc1F` [AS703026] has a Synergy score of 4.71.
Work on `C[C@]12CC[C@@H]3c4ccc(O)cc4C[C@@H](CCCCCCCCC[S+]([O-])CCCC(F)(F)C(F)(F)F)[C@H]3[C@@H]1CC[C@@H]2O` (stereo partly drawn) [Fulvestrant] yielded a Synergy score of 1.30.
In the case of `CS(=O)(=O)N1CCN(Cc2cc3nc(-c4cccc5[nH]ncc45)nc(N4CCOCC4)c3s2)CC1` [GDC-0941], the Synergy score is reported as 6.16.

The molecules below were run on HCC70 in the same assay as above. Details: Compound 1 in combination with second active agent; HCC-70; mean self-cross + 2σ threshold 3.45.
Format: cell-based
Text: as §1, §2, §3
`O=C(NC[C@H](O)CO)c1ccncc1Nc1ccc(I)cc1F` [AS703026] gave a Synergy score of 13.70.
In the case of `C[C@]12CC[C@@H]3c4ccc(O)cc4C[C@@H](CCCCCCCCC[S+]([O-])CCCC(F)(F)C(F)(F)F)[C@H]3[C@@H]1CC[C@@H]2O` (stereo partly drawn) [Fulvestrant], the Synergy score is reported as 1.50.
Work on `CS(=O)(=O)N1CCN(Cc2cc3nc(-c4cccc5[nH]ncc45)nc(N4CCOCC4)c3s2)CC1` [GDC-0941] yielded a Synergy score of 6.42.

The molecules below were run on HCC-1428 in the same assay as above. Details: Compound 1 in combination with the named second active agent, 72 h, mean of n = 3 experiments in triplicate.
Format: cell-based
Text: as §1, §2, §3
Work on `O=C(NC[C@H](O)CO)c1ccncc1Nc1ccc(I)cc1F` [AS703026] yielded a Synergy score of 6.26.
With `C[C@]12CC[C@@H]3c4ccc(O)cc4C[C@@H](CCCCCCCCC[S+]([O-])CCCC(F)(F)C(F)(F)F)[C@H]3[C@@H]1CC[C@@H]2O` (stereo partly drawn) [Fulvestrant] the Synergy score was 1.09.
`CS(=O)(=O)N1CCN(Cc2cc3nc(-c4cccc5[nH]ncc45)nc(N4CCOCC4)c3s2)CC1` [GDC-0941] was tested, and the Synergy score was 1.90.

Each molecule was assayed on MDA-MB-436 in the same assay as above. Details: Compound 1 in combination with second active agent, mean self-cross + 2σ threshold 1.91.
Format: cell-based
Text: as §1, §2, §3
Molecule `O=C(NC[C@H](O)CO)c1ccncc1Nc1ccc(I)cc1F` [AS703026] has a Synergy score of 2.25.
Molecule `C[C@]12CC[C@@H]3c4ccc(O)cc4C[C@@H](CCCCCCCCC[S+]([O-])CCCC(F)(F)C(F)(F)F)[C@H]3[C@@H]1CC[C@@H]2O` (stereo partly drawn) [Fulvestrant] has a Synergy score of 0.74.
Work on `CS(=O)(=O)N1CCN(Cc2cc3nc(-c4cccc5[nH]ncc45)nc(N4CCOCC4)c3s2)CC1` [GDC-0941] yielded a Synergy score of 1.25.

The molecules below were run on MDA-MB-468 in the same assay as above. Details: Compound 1 in combination with second active agent, mean self-cross + 2σ threshold 4.66.
Format: cell-based
Text: as §1, §2, §3
`O=C(NC[C@H](O)CO)c1ccncc1Nc1ccc(I)cc1F` [AS703026] was tested, and the Synergy score was 5.71.
In the case of `C[C@]12CC[C@@H]3c4ccc(O)cc4C[C@@H](CCCCCCCCC[S+]([O-])CCCC(F)(F)C(F)(F)F)[C@H]3[C@@H]1CC[C@@H]2O` (stereo partly drawn) [Fulvestrant], the Synergy score is reported as 0.41.
`CS(=O)(=O)N1CCN(Cc2cc3nc(-c4cccc5[nH]ncc45)nc(N4CCOCC4)c3s2)CC1` [GDC-0941] gave a Synergy score of 3.21.
